{"source": "ChEMBL document CHEMBL5620401", "about": "“Design, synthesis, and biological evaluation of novel spirocyclic compounds as potential anti-glioblastoma agents” (Eur J Med Chem, 2023)", "key": {"U-87 MG [1]": {"system": "U-87 MG", "assay": "Antiproliferative activity against human U87 cells assessed as cell viability measured after 72 hrs by MTT assay", "assay_type": "functional, cell-based, U-87MG ATCC"}, "U-251 [2]": {"system": "U-251", "assay": "Antiproliferative activity against human U-251 cells assessed as cell viability measured after 72 hrs by MTT assay", "assay_type": "functional, cell-based", "conditions": "U-251, 72 h"}, "[3]": {"assay": "Permeability coefficient of compound by lipid-PAMPA assay", "assay_type": "ADME", "conditions": "read-out: Peff"}, "U-87 MG [4]": {"system": "U-87 MG", "assay": "Antiproliferative activity against human U87 cells assessed as inhibition rate at 20 uM measured after 72 hrs by MTT assay relative to control", "assay_type": "functional, U-87MG ATCC"}, "U-251 [5]": {"system": "U-251", "assay": "Antiproliferative activity against human U-251 cells assessed as inhibition rate at 20 uM measured after 72 hrs by MTT assay relative to control", "assay_type": "functional"}}, "note": "pIC50: −log10 of the molar value."}
{"compound": "O=C(/C=C/c1ccc(C(=O)N2CCN(Cc3ccccc3)C23COC3)cc1)c1ccncc1", "values": [{"measurement": "pIC50", "setting": "U-87 MG [1]", "value": 5.28}, {"measurement": "pIC50", "setting": "U-251 [2]", "value": 5.28}]}
{"compound": "O=C(/C=C/c1ccc(C(=O)N2CCN(Cc3ccccc3)C23COC3)o1)c1ccsc1", "values": [{"measurement": "pIC50", "setting": "U-87 MG [1]", "value": "< 5.00"}, {"measurement": "pIC50", "setting": "U-251 [2]", "value": 4.90}]}
{"compound": "O=C(CBr)N1CCN(Cc2ccccc2)C12COC2", "values": [{"measurement": "pIC50", "setting": "U-87 MG [1]", "value": 4.84}, {"measurement": "pIC50", "setting": "U-251 [2]", "value": 4.86}, {"measurement": "Papp", "setting": "[3]", "value": 26.9, "unit": "×10⁻⁶ cm/s"}, {"measurement": "inhibition at 20 µM", "setting": "U-87 MG [4]", "value": 74.3, "unit": "%"}, {"measurement": "inhibition at 20 µM", "setting": "U-251 [5]", "value": 63.9, "unit": "%"}]}
{"compound": "COc1ccc(C(=O)/C=C/c2cccc(C(=O)N3CCN(Cc4ccccc4)C34COC4)c2)c(OC)c1OC", "values": [{"measurement": "pIC50", "setting": "U-87 MG [1]", "value": 5.70}, {"measurement": "pIC50", "setting": "U-251 [2]", "value": 5.92}]}
{"compound": "O=C(/C=C/c1ccncc1)c1ccc(C(=O)N2CCN(Cc3ccccc3)C23COC3)cc1", "values": [{"measurement": "pIC50", "setting": "U-87 MG [1]", "value": 5.52}, {"measurement": "pIC50", "setting": "U-251 [2]", "value": 5.48}]}
{"compound": "COc1cc(C(=O)/C=C/c2ccc(C(=O)N3CCN(Cc4ccccc4)C34COC4)s2)cc(OC)c1OC", "values": [{"measurement": "pIC50", "setting": "U-87 MG [1]", "value": 5.40}, {"measurement": "pIC50", "setting": "U-251 [2]", "value": 5.68}]}
{"compound": "O=C(/C=C/c1ccc(C(=O)N2CCN(Cc3ccccc3)C23COC3)cc1)c1ccccn1", "values": [{"measurement": "pIC50", "setting": "U-87 MG [1]", "value": 5.28}, {"measurement": "pIC50", "setting": "U-251 [2]", "value": 5.38}]}
{"compound": "N#Cc1ccc(C(=O)/C=C/c2ccc(C(=O)N3CCN(Cc4ccccc4)C34COC4)cc2)cc1", "values": [{"measurement": "pIC50", "setting": "U-87 MG [1]", "value": 5.20}, {"measurement": "pIC50", "setting": "U-251 [2]", "value": 5.27}]}
{"compound": "COc1ccc(C(=O)/C=C/c2ccc(C(=O)N3CCN(Cc4ccccc4)C34COC4)cc2)c(OC)c1OC", "values": [{"measurement": "pIC50", "setting": "U-87 MG [1]", "value": 5.46}, {"measurement": "pIC50", "setting": "U-251 [2]", "value": 5.77}]}
{"compound": "COc1cc(C(=O)/C=C/c2ccc(C(=O)N3CCN(Cc4ccccc4)C34COC4)o2)cc(OC)c1OC", "values": [{"measurement": "pIC50", "setting": "U-87 MG [1]", "value": 4.83}, {"measurement": "pIC50", "setting": "U-251 [2]", "value": 5.12}]}
{"compound": "N#Cc1cccc(C(=O)/C=C/c2ccc(C(=O)N3CCN(Cc4ccccc4)C34COC4)cc2)c1", "values": [{"measurement": "pIC50", "setting": "U-87 MG [1]", "value": 5.21}, {"measurement": "pIC50", "setting": "U-251 [2]", "value": 5.27}]}
{"compound": "O=C(/C=C/c1ccc(C(=O)N2CCN(Cc3ccccc3)C23COC3)o1)c1ccncc1", "values": [{"measurement": "pIC50", "setting": "U-87 MG [1]", "value": 4.98}, {"measurement": "pIC50", "setting": "U-251 [2]", "value": 5.22}]}
{"compound": "COc1ccc(C(=O)/C=C/c2cccc(C(=O)N3CCN(Cc4ccccc4)C34COC4)c2)cc1OC", "values": [{"measurement": "pIC50", "setting": "U-87 MG [1]", "value": 5.36}, {"measurement": "pIC50", "setting": "U-251 [2]", "value": 5.80}]}
{"compound": "O=C(/C=C/c1ccc(C(=O)N2CCN(Cc3ccccc3)C23COC3)cc1)c1ccsc1", "values": [{"measurement": "pIC50", "setting": "U-87 MG [1]", "value": 5.07}, {"measurement": "pIC50", "setting": "U-251 [2]", "value": 5.44}]}
{"compound": "COc1ccc(C(=O)/C=C/c2ccccc2C(=O)N2CCN(Cc3ccccc3)C23COC3)c(OC)c1OC", "values": [{"measurement": "pIC50", "setting": "U-87 MG [1]", "value": "< 5.00"}, {"measurement": "pIC50", "setting": "U-251 [2]", "value": 4.96}]}
{"compound": "O=C(/C=C/c1ccccc1C(=O)N1CCN(Cc2ccccc2)C12COC2)c1ccccc1", "values": [{"measurement": "pIC50", "setting": "U-87 MG [1]", "value": 4.98}, {"measurement": "pIC50", "setting": "U-251 [2]", "value": 5.13}]}
{"compound": "COc1cc(C(=O)/C=C/c2ccccc2C(=O)N2CCN(Cc3ccccc3)C23COC3)cc(OC)c1OC", "values": [{"measurement": "pIC50", "setting": "U-87 MG [1]", "value": 5.26}, {"measurement": "pIC50", "setting": "U-251 [2]", "value": 5.31}]}
{"compound": "O=C(/C=C/c1ccc(C(=O)N2CCN(Cc3ccccc3)C23COC3)cc1)c1cccnc1", "values": [{"measurement": "pIC50", "setting": "U-87 MG [1]", "value": 5.14}, {"measurement": "pIC50", "setting": "U-251 [2]", "value": 5.26}]}
